Test results from US20250145566A1, “PHENETHYLAMINE DERIVATIVES, COMPOSITIONS, AND METHODS OF USE” (Cybin IRL Limited, priority 2022, published 2025).
Entries after “also recorded” stand apart in the source; their conditions may differ. Read-outs that look alike come from different tables or passages of the source.

Columns and labels:
MAO-A = target: T1, MAO-A (Homo sapiens, UniProt P21397); experiment: Recombinant human MAO-A in vitro metabolism; assay type: in vitro ADME; conditions: for half-life at 1 µM: human, recombinant human MAO-A
T1 construct: purchased XenoTech (first series); Corning (second series) Corning 456283
T1 sequence (P21397 1-527): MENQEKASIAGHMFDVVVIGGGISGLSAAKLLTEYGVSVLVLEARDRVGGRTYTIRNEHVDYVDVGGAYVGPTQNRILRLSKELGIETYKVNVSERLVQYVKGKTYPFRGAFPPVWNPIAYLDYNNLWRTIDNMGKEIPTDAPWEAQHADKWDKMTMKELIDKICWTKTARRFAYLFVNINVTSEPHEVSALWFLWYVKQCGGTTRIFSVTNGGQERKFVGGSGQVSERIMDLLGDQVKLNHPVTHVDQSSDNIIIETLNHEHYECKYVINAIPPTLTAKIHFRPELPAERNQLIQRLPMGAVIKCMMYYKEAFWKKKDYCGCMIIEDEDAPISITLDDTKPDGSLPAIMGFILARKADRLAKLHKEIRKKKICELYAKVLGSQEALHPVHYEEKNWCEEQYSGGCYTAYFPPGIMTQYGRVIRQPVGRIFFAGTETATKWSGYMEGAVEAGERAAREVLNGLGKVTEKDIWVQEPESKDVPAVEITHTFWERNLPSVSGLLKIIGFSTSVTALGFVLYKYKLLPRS
Method: Recombinant human MAO-A. hrMAO-A and MAO control were purchased from XenoTech. The reaction mixture was prepared as described in Table 11. The test compound was added into the reaction mixture at a final concentration of 1 μM. The positive control kynuramine (25 μM) was run simultaneously with the test compound in a separate reaction. The reaction mixture (without test compounds or kynuramine) was equilibrated in a shaking water bath at 37° C. for 5 minutes. The reaction was initiated by the addition of the test compound or kynuramine, and the mixture was incubated in a shaking water bath at 37° C. Aliquots (150 μL) of the test compound reaction mixture were withdrawn at 0, 5, 10, 20, 30, 60, and for some assays at 120 minutes. Aliquots (150 μL) of the positive control reaction mixture were withdrawn at 0 and 30 minutes. Test compound and kynuramine samples were immediately combined with 150 μL of ice-cold 100% acetonitrile containing 0.1% formic acid and internal standard (0.2 μM metoprolol) to terminate the reaction. The samples were then mixed and centrifuged to precipitate proteins. All samples were assayed by LC-MS/MS. The peak area response ratio (PARR) of analyte to internal standard at each time point was compared to the PARR at time 0 to determine the percent remaining at each time point. Half-lives were calculated using GraphPad software, fitting to a single-phase exponential decay equation.
(§1) In a different series of reactions using human MAO-A and MAO-B, a 10 mM stock solution of the test compound was prepared in DMSO. From this stock solution, an intermediate stock solution of 1 mM was prepared by diluting the compound in DMSO and from this intermediate stock solution, a working solution of 0.30 mM was prepared by diluting the compound in ACN:Water (50:50) as cocktail of 2 compounds (30 μL each compound in 40 μL diluent for 100 μL). Following this, a master mix of 0.1 M potassium phosphate buffer and test compound mixture i.e., the non-deuterated and the deuterated analog, were prepared to achieve final drug concentration of 1 μM (0.2% DMSO) for the required number of reactions. The aforementioned master mix was pre-incubated at 37° C. for 5 min. To this master mix, MAO-A (final protein conc. 0.1 mg/mL; Corning Cat #456283; Lot #1173003) or MAO-B (final protein conc. 0.1 mg/mL; Corning Cat #456284; Lot #0318001) was added to initiate the reaction. The samples were then incubated at 37° C. for the desired time points. At each time point (0, 5, 15, 30, 45, 60), 40 μL of the samples were withdrawn and reactions were stopped using 200 μL chilled ACN containing 0.1% formic acid and internal standard Carbamazepine (10 ng/mL). The samples were centrifuged, and the supernatant was analyzed by LC-MS/MS. The percent compound remaining at each time point was calculated with respect to that of the 0 min sample. The data were then analyzed to calculate half-life and intrinsic clearance (CLint). Blank samples were prepared using DMSO (without the test compound).

[1] = Rat liver microsomes (RLM) in vitro metabolism; assay type: in vitro ADME; conditions: Sprague-Dawley
Method: (§2) Rat Liver Microsomes (RLM). Male Sprague-Dawley rat liver microsomes were purchased from XenoTech. The reaction mixture, minus NADPH, was prepared as described in Table 10. The test compound was added into the reaction mixture at a final concentration of 1 μM. The control compound, testosterone, was run simultaneously with the test compound in a separate reaction. The reaction mixture (without cofactor) was equilibrated in a shaking water bath at 37° C. for 5 minutes. The reaction was initiated by the addition of the cofactor, and the mixture was incubated in a shaking water bath at 37° C. Aliquots (150 μL) were withdrawn at 0, 5, 10, 20, 30, 60, and for some assays at 120 minutes. Test compound and testosterone samples were immediately combined with 150 μL of ice-cold acetonitrile (ACN) containing 0.1% formic acid and internal standard to terminate the reaction. The samples were then mixed and centrifuged to precipitate proteins. All samples were assayed by LC-MS/MS using electrospray ionization. The peak area response ratio (PARR) of analyte to internal standard at each time point was compared to the PARR at time 0 to determine the percent remaining at each time point. Half-lives were calculated using GraphPad software, fitting to a single-phase exponential decay equation.
(§3) In a different series of reactions using RLM, a 10 mM stock solution of the test compound was prepared in DMSO. From this stock solution, an intermediate stock solution of 1 mM was prepared by diluting the compound in DMSO and from this intermediate stock solution, a working solution of 0.30 mM was prepared by diluting the compound in ACN:Water (50:50) as a cocktail of two compounds (i.e., 30 μL the non-deuterated and the deuterated compound in 40 μL diluent in 100 μL total volume). Following this, a master mix of rat liver microsomes (final concentration 0.5 mg/ml, Xenotech Cat #R1000; Lot #1610290) and 0.1 M potassium phosphate buffer was prepared and pre-incubated for 5 min at 37° C. The test compound mixture was then added to achieve a final test article concentration of 1 μM (for each analog if co-dosed; 0.2% DMSO); verapamil was used as a positive control. Subsequently, 10 mM NADPH prepared in 0.1 M potassium phosphate buffer was added (final concentration 1 mM) to initiate the reaction and samples were incubated at 37° C. for the desired time points (0, 5, 15, 30, 45, 60 min). At each time point, 40 μL of the samples were withdrawn and reactions were stopped using 200 μL chilled ACN containing 0.1% formic acid and internal standard carbamazepine (10 ng/mL). The samples were centrifuged, and the supernatant was analyzed by LC-MS/MS. The percent compound remaining at each time point was calculated with respect to that of the 0 min sample. The data were then analyzed to calculate half-life. Blank samples were prepared using DMSO (without the test compound).

MAO-B = target: T2, MAO-B (Homo sapiens, UniProt P27338); experiment: human MAO-B in vitro metabolism; assay type: in vitro ADME; conditions: human MAO-B enzyme (Corning), test compound 1 μM, read-out: MAO-B t1/2
T2 construct: purchased Corning 456284
T2 sequence (P27338 1-520): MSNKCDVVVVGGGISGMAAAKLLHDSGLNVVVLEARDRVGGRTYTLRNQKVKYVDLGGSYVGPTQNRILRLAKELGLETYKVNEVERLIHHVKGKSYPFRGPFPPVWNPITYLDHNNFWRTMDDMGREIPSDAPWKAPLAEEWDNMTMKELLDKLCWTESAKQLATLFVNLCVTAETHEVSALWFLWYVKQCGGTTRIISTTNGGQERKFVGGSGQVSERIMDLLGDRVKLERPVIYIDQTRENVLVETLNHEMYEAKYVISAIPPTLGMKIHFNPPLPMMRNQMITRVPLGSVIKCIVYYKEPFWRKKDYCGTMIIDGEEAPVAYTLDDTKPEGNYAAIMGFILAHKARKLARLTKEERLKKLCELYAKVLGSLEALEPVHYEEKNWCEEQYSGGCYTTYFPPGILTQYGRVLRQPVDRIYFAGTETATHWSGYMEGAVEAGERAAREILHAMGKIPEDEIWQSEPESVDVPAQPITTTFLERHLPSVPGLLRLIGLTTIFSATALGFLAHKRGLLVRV
Method: as §1

5-HT2A receptor = target: T3, 5-HT2A receptor (Homo sapiens, UniProt P28223); experiment: 5-HT2A radioligand ([3H]LSD) competition binding; conditions: for affinity at 5-HT2A receptors, comparison in words: [3H]LSD competition binding
T3 construct: host or cells: HEK293 (ATCC CRL-1573), transient, membranes

Rat Liver Microsomes = experiment: Rat liver microsomes (RLM) in vitro metabolism; assay type: in vitro ADME
Method: as §2, §3

5-HT2A (h) = target: T4, 5-HT2A (h) (Homo sapiens, UniProt P28223); conditions: literature, single enantiomers, cited from earlier work; for EC50: read-out: Function 5-HT2A EC50
T4 construct: expressed in transfected cells; host or cells: HEK-293 cells

[2] = human recombinant MAO-A, test compound 1 μM, read-out: MAO-A t1/2
[3] = pH 7.4, rat liver microsomes, test compound 1 μM, * = apparent NADPH independent reaction, read-out: RLM t1/2
[4] = rat liver microsomes (Table 18), read-out: RLM t1/2
[5] = rat liver microsomes (Table 17), read-out: RLM t1/2

T3 sequence (P28223 whole entry): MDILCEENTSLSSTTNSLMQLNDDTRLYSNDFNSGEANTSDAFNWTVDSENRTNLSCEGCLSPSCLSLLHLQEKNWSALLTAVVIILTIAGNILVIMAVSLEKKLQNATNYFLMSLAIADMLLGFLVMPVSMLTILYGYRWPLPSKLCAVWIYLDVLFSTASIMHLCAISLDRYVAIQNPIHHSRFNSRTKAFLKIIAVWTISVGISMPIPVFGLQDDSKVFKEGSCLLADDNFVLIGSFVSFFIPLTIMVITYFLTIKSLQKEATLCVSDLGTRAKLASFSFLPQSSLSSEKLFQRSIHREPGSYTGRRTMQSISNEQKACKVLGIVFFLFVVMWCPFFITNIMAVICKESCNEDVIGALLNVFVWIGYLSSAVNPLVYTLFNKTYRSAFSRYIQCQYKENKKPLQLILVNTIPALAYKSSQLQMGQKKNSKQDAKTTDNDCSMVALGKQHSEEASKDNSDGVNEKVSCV
T4 sequence (P28223 whole entry): as above

[2H]C1([2H])Oc2cc(CC(C)N)ccc2S1 (stereo not drawn) [II-17, 1-(benzo[d][1,3]oxathiol-6-yl-2,2-d2)propan-2-amine]
half-life at 1 µM (MAO-A; [2]): > 120 min
stability in the presence of MAO-A (MAO-A; result in words): stable
half-life at 1 µM [1, 3]: 12.6 min
half-life at 1 µM (MAO-B): 892 min

[2H]C1([2H])Oc2cc(CCN)ccc2S1 [II-15, 2-(benzo[d][1,3]oxathiol-6-yl-2,2-d2)ethan-1-amine]
half-life at 1 µM (MAO-A; 1 μM test compound, read-out: half-life, MAO-A metabolism): ≤ 8 min
half-life at 1 µM (MAO-A; [2]): 4.42 min
half-life at 1 µM [1, 3]: < 5 min
half-life at 1 µM (MAO-B): < 5 min

COc1cc(SC(F)(F)F)c(OC)cc1CC(C)N (racemic) [IV-1 (racemic)]
half-life at 1 µM [1, 4]: 40.7 min
Ki (5-HT2A receptor; agonist radioligand: [3H]LSD (Table 18), read-out: 5HT2A Ki): 7 nM

COc1cc(SC)c(OC)cc1C[C@@H](C)N [Reference Compound 2 (R)]
half-life at 1 µM (MAO-A; Table 18, read-out: MAO-A t1/2): > 120 min
half-life at 1 µM [1, 5]: 16 min
Ki (5-HT2A receptor): 7 nM

COc1cc(CCN)cc(OC)c1SC(F)(F)F [III-5, 2-(3,5-dimethoxy-4-((trifluoromethyl)thio)phenyl)ethan-1-amine]
RLM t1/2 (Rat Liver Microsomes; rat liver microsomes (Table 17)): >120 min
half-life at 1 µM ([1]; rat, rat liver microsomes, 1 μM test compound, read-out: half-life in the presence of rat liver microsome): > 120 min
Ki (5-HT2A receptor): 1.6 nM
affinity at 5-HT2A receptors, comparison in words (5-HT2A receptor): superior affinity at 5-HT2A receptors compared to Reference Compound 1; also recorded: affinity equal to or better than classic 2,4,5-substituted 5-HT2A agonists, such as Reference Compounds 2-4
Ki (5-HT2A receptor; read-out: 5HT2A Ki at the low-affinity inactive state, [3H]LSD, two-site fit): 676 nM

C[C@H](N)Cc1ccc2c(c1)OCO2 [S-MDA]
Function 5-HT2A EMAX (5-HT2A (h)): EMAX = 89%
EC50 (5-HT2A (h)): 18200 nM

COc1cc(C(F)(F)F)c(OC)cc1CCN [Reference Compound 4, 2-(2,5-dimethoxy-4-(trifluoromethyl)phenyl)ethan-1-amine, reference compound]
half-life at 1 µM [1, 5]: 16.6 min
Ki (5-HT2A receptor): 3.4 nM

[2H]C([2H])([2H])Oc1cc(SC)c(OC([2H])([2H])[2H])cc1C[C@@H](C)N [IV-9 (R)]
half-life at 1 µM (MAO-A; Table 18, read-out: MAO-A t1/2): > 120 min
half-life at 1 µM [1, 4]: 16.6 min
Ki (5-HT2A receptor): 26 nM

COc1cc(SC(F)(F)F)c(OC)cc1CC(C)N (racemic) [IV-1, 1-(2,5-dimethoxy-4-((trifluoromethyl)thio)phenyl)propan-2-amine]
stability / half-life in RLMs, comparison in words (Rat Liver Microsomes; compared with Reference Compound 2): greater stability in RLMs than Reference Compound 2
affinity at 5-HT2A receptors, comparison in words (5-HT2A receptor): affinity at 5-HT2A receptors equal or superior to both enantiomers of Reference Compound 2

[2H]C([2H])([2H])Oc1cc(SC)c(OC([2H])([2H])[2H])cc1C[C@H](C)N [IV-9 (S)]
half-life at 1 µM (MAO-A; Table 18, read-out: MAO-A t1/2): > 120 min
half-life at 1 µM [1, 4]: 6.3 min
Ki (5-HT2A receptor): 56 nM

COc1cc(SC)c(OC)cc1C[C@H](C)N [Reference Compound 2 (S)]
half-life at 1 µM (MAO-A; Table 18, read-out: MAO-A t1/2): > 120 min
half-life at 1 µM [1, 5]: 6.34 min
Ki (5-HT2A receptor): 18 nM

C[C@@H](N)Cc1ccc2c(c1)OCO2 [R-MDA]
Function 5-HT2A EMAX (5-HT2A (h)): EMAX = 95%
EC50 (5-HT2A (h)): 5600 nM

COc1cc(SC)c(OC)cc1CCN [Reference Compound 3, 2-(2,5-dimethoxy-4-(methylthio)phenyl)ethan-1-amine, reference compound]
half-life at 1 µM [1, 5]: 6.09 min
